Laboratory results from PubChem BioAssay AID1963836 (Molecular Pharmacology Branch, DTP, NCI, 2024).

System: 857933-349-R-J2-PDC complex spheroid viability
Assay: Anticancer human tumor 857933-349-R-J2-PDC patient-derived colon adenocarcinoma cell line growth inhibition [POLQ]
Conditions: for IC50: curve of first compound; for viability, T/C: stronger effect = lower value
Procedure, shortened: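 Patient-derived tumour cells were co-cultured with HUVEC and mesenchymal stem cells as multicellular spheroids at 37 °C. They were treated with POLQ inhibitors (novobiocin, ART-558, RP6685) alone or combined with other agents. Top concentrations were at or near clinical Cmax (otherwise 10 microM; SN-38 at 1 microM), decreasing in half-log steps.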

[1] = second compound 0.0316 µM, first compound 0.0316 µM
[2] = second compound 0.0316 µM, first compound 0.1 µM
[3] = second compound 0.0316 µM, first compound 0.316 µM
[4] = second compound 0.0316 µM, first compound 1 µM
[5] = second compound 0.0316 µM, first compound 3.16 µM
[6] = second compound 0.0316 µM, first compound 10 µM
[7] = second compound 0.1 µM, first compound 0.0316 µM
[8] = second compound 0.1 µM, first compound 0.1 µM
[9] = second compound 0.1 µM, first compound 0.316 µM
[10] = second compound 0.1 µM, first compound 1 µM
[11] = second compound 0.1 µM, first compound 3.16 µM
[12] = second compound 0.1 µM, first compound 10 µM
[13] = second compound 0.316 µM, first compound 0.0316 µM
[14] = second compound 0.316 µM, first compound 0.1 µM
[15] = second compound 0.316 µM, first compound 0.316 µM
[16] = second compound 0.316 µM, first compound 1 µM
[17] = second compound 0.316 µM, first compound 3.16 µM
[18] = second compound 0.316 µM, first compound 10 µM
[19] = second compound 1 µM, first compound 0.0316 µM
[20] = second compound 1 µM, first compound 0.1 µM
[21] = second compound 1 µM, first compound 0.316 µM
[22] = second compound 1 µM, first compound 1 µM
[23] = second compound 1 µM, first compound 3.16 µM
[24] = second compound 1 µM, first compound 10 µM
[25] = second compound 3.16 µM, first compound 0.0316 µM
[26] = second compound 3.16 µM, first compound 0.1 µM
[27] = second compound 3.16 µM, first compound 0.316 µM
[28] = second compound 3.16 µM, first compound 1 µM
[29] = second compound 3.16 µM, first compound 3.16 µM
[30] = second compound 3.16 µM, first compound 10 µM
[31] = second compound 10 µM, first compound 0.0316 µM
[32] = second compound 10 µM, first compound 0.1 µM
[33] = second compound 10 µM, first compound 0.316 µM
[34] = second compound 10 µM, first compound 1 µM
[35] = second compound 10 µM, first compound 3.16 µM
[36] = second compound 10 µM, first compound 10 µM
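Further: spheroids exposed to compounds for seven days before readout.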

COc1cccc2c1C(=O)c1c(O)c3c(c(O)c1C2=O)CC(O)(C(=O)CO)CC3OC1CC(N)C(O)C(C)O1 (stereo not given) + Nc1ccc(C#CCN(C(=O)Cc2ncc(C(F)(F)F)cc2C(F)(F)F)c2ccc(F)cc2)nn1
IC50 (second compound 0.0316 µM): 0.22 µM
IC50 (second compound 0.1 µM): 0.212 µM
IC50 (second compound 0.316 µM): 0.234 µM
IC50 (second compound 1 µM): 0.216 µM
IC50 (second compound 3.16 µM): 0.175 µM
IC50 (second compound 10 µM): 0.149 µM
viability, T/C [1]: 74.9%
viability, T/C [2]: 63%
viability, T/C [3]: 43.9%
viability, T/C [4]: 5.65%
viability, T/C [5]: 0.31%
viability, T/C [6]: 0.26%
viability, T/C [7]: 74.3%
viability, T/C [8]: 67.1%
viability, T/C [9]: 40.7%
viability, T/C [10]: 5.86%
viability, T/C [11]: 0.25%
viability, T/C [12]: 0.17%
viability, T/C [13]: 65%
viability, T/C [14]: 85.6%
viability, T/C [15]: 41.1%
viability, T/C [16]: 5.61%
viability, T/C [17]: 0.2%
viability, T/C [18]: 0.19%
viability, T/C [19]: 83%
viability, T/C [20]: 75.7%
viability, T/C [21]: 36.9%
viability, T/C [22]: 9.45%
viability, T/C [23]: 0.22%
viability, T/C [24]: 0.23%
viability, T/C [25]: 72.5%
viability, T/C [26]: 60.4%
viability, T/C [27]: 37.9%
viability, T/C [28]: 5.43%
viability, T/C [29]: 0.39%
viability, T/C [30]: 0.28%
viability, T/C [31]: 66.9%
viability, T/C [32]: 63%
viability, T/C [33]: 26.8%
viability, T/C [34]: 6.24%
viability, T/C [35]: 0.35%
viability, T/C [36]: 0.32%

C#Cc1c(F)ccc2cc(O)cc(-c3ncc4c(N5CC6CCC(C5)N6)nc(OCC56CCCN5CC(F)C6)nc4c3F)c12 (stereo not given) + Cc1cccc(N(C)C(=O)C2C(O)CCN2c2nc(C)cc(C(F)(F)F)c2C#N)c1
IC50 (second compound 0.0316 µM): > 10 µM
IC50 (second compound 0.1 µM): > 10 µM
IC50 (second compound 0.316 µM): > 10 µM
IC50 (second compound 1 µM): > 10 µM
IC50 (second compound 3.16 µM): > 10 µM
IC50 (second compound 10 µM): > 10 µM
viability, T/C [1]: 91.7%
viability, T/C [2]: 105%
viability, T/C [3]: 101%
viability, T/C [4]: 89.2%
viability, T/C [5]: 89.4%
viability, T/C [6]: 82.8%
viability, T/C [7]: 107%
viability, T/C [8]: 97.8%
viability, T/C [9]: 96.3%
viability, T/C [10]: 76.8%
viability, T/C [11]: 89.2%
viability, T/C [12]: 74.2%
viability, T/C [13]: 101%
viability, T/C [14]: 110%
viability, T/C [15]: 103%
viability, T/C [16]: 80.3%
viability, T/C [17]: 96.1%
viability, T/C [18]: 91.4%
viability, T/C [19]: 87%
viability, T/C [20]: 87.1%
viability, T/C [21]: 85.6%
viability, T/C [22]: 87.5%
viability, T/C [23]: 91%
viability, T/C [24]: 87.6%
viability, T/C [25]: 97.7%
viability, T/C [26]: 90.2%
viability, T/C [27]: 85.9%
viability, T/C [28]: 90.8%
viability, T/C [29]: 101%
viability, T/C [30]: 84.2%
viability, T/C [31]: 80.8%
viability, T/C [32]: 86.9%
viability, T/C [33]: 91%
viability, T/C [34]: 75.1%
viability, T/C [35]: 90.9%
viability, T/C [36]: 81.3%

CCc1cc2c(N3CCc4c(cc(Cn5ccnc5)cc4-c4cn(C)nc4C(F)(F)F)C3=O)ccnc2c(OC)n1 + Nc1ccc(C#CCN(C(=O)Cc2ncc(C(F)(F)F)cc2C(F)(F)F)c2ccc(F)cc2)nn1
IC50 (second compound 0.0316 µM): > 10 µM
IC50 (second compound 0.1 µM): > 10 µM
IC50 (second compound 0.316 µM): > 10 µM
IC50 (second compound 1 µM): > 10 µM
IC50 (second compound 3.16 µM): > 10 µM
IC50 (second compound 10 µM): 6.06 µM
viability, T/C [1]: 93.9%
viability, T/C [2]: 96.4%
viability, T/C [3]: 76.3%
viability, T/C [4]: 87.7%
viability, T/C [5]: 59.2%
viability, T/C [6]: 59.2%
viability, T/C [7]: 97.3%
viability, T/C [8]: 101%
viability, T/C [9]: 94.5%
viability, T/C [10]: 93%
viability, T/C [11]: 70%
viability, T/C [12]: 58.5%
viability, T/C [13]: 82%
viability, T/C [14]: 86%
viability, T/C [15]: 94.5%
viability, T/C [16]: 84.1%
viability, T/C [17]: 77%
viability, T/C [18]: 55.1%
viability, T/C [19]: 97.6%
viability, T/C [20]: 90.2%
viability, T/C [21]: 95.1%
viability, T/C [22]: 77.2%
viability, T/C [23]: 71.1%
viability, T/C [24]: 65.3%
viability, T/C [25]: 97.6%
viability, T/C [26]: 89.9%
viability, T/C [27]: 104%
viability, T/C [28]: 83%
viability, T/C [29]: 68.3%
viability, T/C [30]: 62.8%
viability, T/C [31]: 83.5%
viability, T/C [32]: 77.3%
viability, T/C [33]: 79.6%
viability, T/C [34]: 75.7%
viability, T/C [35]: 54.4%
viability, T/C [36]: 46.6%

C=CC(=O)N1CCN(c2nc(=O)n(-c3c(C)ccnc3C(C)C)c3nc(-c4c(O)cccc4F)c(F)cc23)C(C)C1 (stereo not given) + Nc1ccc(C#CCN(C(=O)Cc2ncc(C(F)(F)F)cc2C(F)(F)F)c2ccc(F)cc2)nn1
IC50 (second compound 0.0316 µM): > 10 µM
IC50 (second compound 0.1 µM): > 10 µM
IC50 (second compound 0.316 µM): > 10 µM
IC50 (second compound 1 µM): > 10 µM
IC50 (second compound 3.16 µM): > 10 µM
IC50 (second compound 10 µM): > 10 µM
viability, T/C [1]: 90.6%
viability, T/C [2]: 101%
viability, T/C [3]: 113%
viability, T/C [4]: 98.6%
viability, T/C [5]: 113%
viability, T/C [6]: 87.6%
viability, T/C [7]: 99.3%
viability, T/C [8]: 90.7%
viability, T/C [9]: 105%
viability, T/C [10]: 100%
viability, T/C [11]: 98.9%
viability, T/C [12]: 95.5%
viability, T/C [13]: 107%
viability, T/C [14]: 98.5%
viability, T/C [15]: 98.3%
viability, T/C [16]: 112%
viability, T/C [17]: 93.1%
viability, T/C [18]: 83.5%
viability, T/C [19]: 111%
viability, T/C [20]: 107%
viability, T/C [21]: 97.6%
viability, T/C [22]: 100%
viability, T/C [23]: 110%
viability, T/C [24]: 97.2%
viability, T/C [25]: 103%
viability, T/C [26]: 88.8%
viability, T/C [27]: 96.4%
viability, T/C [28]: 101%
viability, T/C [29]: 108%
viability, T/C [30]: 98.5%
viability, T/C [31]: 81.2%
viability, T/C [32]: 101%
viability, T/C [33]: 98.9%
viability, T/C [34]: 92.6%
viability, T/C [35]: 112%
viability, T/C [36]: 95.3%

CCc1cc2c(N3CCc4c(cc(Cn5ccnc5)cc4-c4cn(C)nc4C(F)(F)F)C3=O)cc(C)nc2c(OC)n1 + COC1C(OC(N)=O)C(O)C(Oc2ccc3c(O)c(NC(=O)c4ccc(O)c(CC=C(C)C)c4)c(=O)oc3c2C)OC1(C)C
IC50 (second compound 0.0316 µM): > 10 µM
IC50 (second compound 0.1 µM): > 10 µM
IC50 (second compound 0.316 µM): > 10 µM
IC50 (second compound 1 µM): > 10 µM
IC50 (second compound 3.16 µM): > 10 µM
IC50 (second compound 10 µM): > 10 µM
viability, T/C [1]: 116%
viability, T/C [2]: 80.3%
viability, T/C [3]: 72.3%
viability, T/C [4]: 61.8%
viability, T/C [5]: 68.5%
viability, T/C [6]: 56.2%
viability, T/C [7]: 97.5%
viability, T/C [8]: 77.6%
viability, T/C [9]: 95.5%
viability, T/C [10]: 58.6%
viability, T/C [11]: 68.2%
viability, T/C [12]: 52.9%
viability, T/C [13]: 117%
viability, T/C [14]: 88.3%
viability, T/C [15]: 75.3%
viability, T/C [16]: 61.7%
viability, T/C [17]: 82.9%
viability, T/C [18]: 67.5%
viability, T/C [19]: 102%
viability, T/C [20]: 95.3%
viability, T/C [21]: 78.8%
viability, T/C [22]: 60.2%
viability, T/C [23]: 52.8%
viability, T/C [24]: 57.7%
viability, T/C [25]: 77.7%
viability, T/C [26]: 76.1%
viability, T/C [27]: 89.7%
viability, T/C [28]: 80.1%
viability, T/C [29]: 57.5%
viability, T/C [30]: 68.3%
viability, T/C [31]: 71.3%
viability, T/C [32]: 86.3%
viability, T/C [33]: 72.7%
viability, T/C [34]: 71.3%
viability, T/C [35]: 91.8%
viability, T/C [36]: 58%
